Results on 20 compounds are retold here after US20250011303A1, “SMALL MOLECULE MODULATORS OF IL-17A, METHODS OF MAKING AND METHODS OF USING THEREOF” (ASCLETIS BIOSCIENCE CO., LTD, priority 2023, published 2025).

The test system of data set [1] is HEK-Blue IL-17 cells with rhIL-17A/A. In words: HEK-Blue IL-17 cell assay (SEAP reporter, rhIL-17A/A stimulation). The note with it: 20 hours incubation, absorbance at 405 nm, read-out: IC50 in HEK-Bule cell Assay. The class given is cell-based, human. As to the method: • 1. The test Compounds were 3-fold serial diluted from 10 mM for 10 doses in DMSO. • 2. Prepare Reference Compounds (IL-17A-Inhibitor-1) were 3-fold serial diluted from 1 mM for 10 doses in DMSO. • 3. Prepare 1000× Positive control (1 mM IL-17A-Inhibitor-1) and 1000× vehicle control (100% DMSO).
• a) Cells were cultured as the HEK-Blue™ IL-17 technical data sheet recommended. HEK-Blue IL-17 cells were assayed in the exponential growth phase. • b) Aspirate growth medium and rinse cells twice with PBS to remove phenol red. • c) Resuspend cells in test medium to a proper concentration. • d) Only cells with viability greater than 90% were used for assays. • e) Transfer 25 nl of compound dilutions into 384-well assay plates using Echo655; • f) Seed 25 ul of HEK-Blue IL-17 cells at 8,000 cells/well into 384-well plate with rhIL-17A/A. • g) Cells were incubated for 20 hours at 37° C. under 5% CO2 atmosphere. • h) Transfer 2 ul of cells supernatant into per well of 384-well assay plates. • i) Add 20 ul of PNPP substrate. • j) Measure the Absorbance at 405 nm on Envision 2105 plate reader.
RLU signal (LUMcmpd) is calculated for each well.
% Inhibition is calculated as follow: […]
Signalave_pc: The average signal for the positive controls across the plate.
Signalave_vc: The average signal for negative controls across the plate.
Calculate IC50 and Plot effect-dose curve of cmpds:
Calculate IC50 by fitting % Inhibition values and log of compound concentrations to nonlinear regression (dose response−variable slope) with Graphpad 8.0.

Data set [2] is described as follows: Pharmacokinetics after oral gavage in fasted SD rats. The data set is classed as in vivo. As to conditions: PO 10 mg per kilogram, plasma; for AUC: 0.25-24 hours; for bioavailability: rat, 10 mg per kilogram body weight. As to the method: Compounds of the present application were formulated in 40% PEG400/10% solutol/2% Tween 80/48% saline (v/v/v/v), and administered via oral gavage (PO) at the dosages of 10 mg per kilogram body weight in fasted SD rats. Plasma samples were collected at 0.25, 0.5, 1, 2, 4, 8, and 24 hours post dosing. Compound concentration was determined by LC-MS and pharmacokinetics parameters were calculated by WinNonlin 8.2 using Non-Compartmental Analysis model.

Where two headings read alike, the source gives them in different places.

Consider `CC(C)[C@H]1C[C@@H](C(=O)N2CC(F)(F)C2)c2ccc(NC(=O)[C@@H](NC(=O)c3ccnn3C(C)C)C(C3CC3)C3CC3)cc2O1` [Compound 161], for which the IC50 in data set [1] (Homo sapiens, HEK-Blue, 20 h) worked out at 43.3 nM. Besides, in data set [2], the AUC is listed as 9703 ng · h/m and the bioavailability is 63.5%.

In the case of `CC(C)[C@H]1C[C@@H](C(=O)N2CC(F)(F)C2)c2ccc(NC(=O)[C@@H](NC(=O)c3ccnn3C(C)C)C3CCCCCC3)cc2O1` [Compound 204], the IC50 in data set [1] (Homo sapiens, HEK-Blue, 20 h) worked out at 46.6 nM. In data set [2], this compound had an AUC of 18980 ng · h/m and a bioavailability of 34.8%.

Take `CC(C)n1nccc1C(=O)N[C@H](C(=O)Nc1ccc2c(c1)OC1(CCC(F)(F)CC1)CC2C(=O)N1CC(F)(F)C1)C1CCCCCC1` (stereo partly shown) [Compound 225]: the IC50 in data set [1] (Homo sapiens, HEK-Blue, 20 h) turned out to be 44.9 nM. In data set [2], this compound returned an AUC of 7840 ng · h/m and a bioavailability of 57.6%.

Regarding `CC(C)n1nccc1C(=O)N[C@H](C(=O)Nc1ccc2c(c1)O[C@@H](C1CC(F)(F)C1)C[C@H]2C(=O)N1CC(F)(F)C1)C1CCCCCC1` [Compound 228], the IC50 in data set [1] turned out to be 27.5 nM.

With `CC(C)C1CC(C(=O)N2CC(F)(F)C2)c2cc(F)c(NC(=O)[C@@H](NC(=O)c3ccnn3C(C)C)C3CCCCCC3)cc2O1` (stereo partly shown) [Compound 230], the IC50 in data set [1] (Homo sapiens, HEK-Blue, 20 h) was 242 nM.

Consider `CC(C)n1nccc1C(=O)N[C@H](C(=O)Nc1ccc2c(c1)OC(C1CC(F)(F)C1)CC2C(=O)N1CC(C(F)(F)F)C1)C1CCCCCC1` (stereo partly shown) [Compound 231], for which the IC50 in data set [1] (Homo sapiens, HEK-Blue, 20 h) was 116 nM.

In the case of `CC(C)n1nccc1C(=O)N[C@H](C(=O)Nc1ccc2c(c1)OC(C1CC(F)(F)C1)CC2C(=O)N1CC(C(F)F)C1)C1CCCCCC1` (stereo partly shown) [Compound 232], the IC50 in data set [1] (Homo sapiens, HEK-Blue, 20 h) turned out to be 77.1 nM.

Consider `CC1CN(C(=O)N2CC(F)(F)C2)c2ccc(NC(=O)[C@@H](NC(=O)c3ccnn3C(C)C)C3CCCCCC3)cc2O1` (stereo partly shown) [Compound 235], for which the IC50 in data set [1] (Homo sapiens, HEK-Blue, 20 h) is 71.9 nM.

For `CC(C)n1nccc1C(=O)N[C@H](C(=O)Nc1cc2c(cc1F)C(C(=O)N1CC(F)(F)C1)CC1(CCOCC1)O2)C1CCCCCC1` (stereo partly shown) [Compound 236], the IC50 in data set [1] (Homo sapiens, HEK-Blue, 20 h) came to 14.9 nM.

Regarding `CC(C)n1nccc1C(=O)N[C@H](C(=O)Nc1cc2c(cc1F)C(C(=O)N1CC(F)(F)C1)CC1(CCOCC1)O2)C(C1CC1)C1CC1` (stereo partly shown) [Compound 237], the IC50 in data set [1] (Homo sapiens, HEK-Blue, 20 h) was found to be 26.1 nM.

As for `CC(C)n1nccc1C(=O)N[C@H](C(=O)Nc1ccc2c(c1)OC1(CCOCC1)CC2C(=O)N1CC(F)(F)C1)[C@H]1CC[C@H](C)CC1` (stereo partly shown) [Compound 239], the IC50 in data set [1] (Homo sapiens, HEK-Blue, 20 h) was 31.1 nM.

With `CC(C)n1nccc1C(=O)N[C@H](C(=O)Nc1ccc2c(c1)O[C@@H](C1CC(F)(F)C1)C[C@H]2C(=O)N1CC(F)(F)C1)C1CCC(F)(F)CC1` [Compound 240], the IC50 in data set [1] (Homo sapiens, HEK-Blue, 20 h) worked out at 48.3 nM.

As to `CC(C)n1nccc1C(=O)N[C@H](C(=O)Nc1ccc2c(c1)O[C@@H](C1CC(F)(F)C1)C[C@H]2C(=O)N1CC(F)(F)C1)[C@H]1CC[C@H](C)CC1` [Compound 241], the half-maximal inhibitory concentration (IC50) in data set [1] (Homo sapiens, HEK-Blue, 20 h) was 15.9 nM.

As for `CC(C)n1nccc1C(=O)N[C@H](C(=O)Nc1ccc2c(c1)OC1(CCC(F)(F)CC1)CC2C(=O)N1CC(F)(F)C1)C(C1CC1)C1CC1` (stereo partly shown) [Compound 243], the IC50 in data set [1] (Homo sapiens, HEK-Blue, 20 h) amounted to 122 nM.

Take `CC(C)n1nccc1C(=O)N[C@H](C(=O)Nc1cc2c(cc1F)C(C(=O)N1CC(F)(F)C1)CC1(CCOCC1)O2)[C@H]1CC[C@H](C)CC1` (stereo partly shown) [Compound 244]: in data set [1] (Homo sapiens, HEK-Blue, 20 h), the IC50 was determined as 13.5 nM.

As for `CC(C)n1nccc1C(=O)N[C@H](C(=O)Nc1cc2c(cc1F)[C@H](C(=O)N1CC(F)(F)C1)C[C@H](C1CC(F)(F)C1)O2)C(C1CC1)C1CC1` [Compound 245], in data set [1] (Homo sapiens, HEK-Blue, 20 h), the IC50 is 22 nM.

As to `CC(C)n1nccc1C(=O)N[C@H](C(=O)Nc1ccc2c(c1)OC1(CCOCC1)CN2C(=O)N1CC(F)(F)C1)C(C1CC1)C1CC1` [Compound 246], the IC50 in data set [1] (Homo sapiens, HEK-Blue, 20 h) is 18.2 nM.

Turning to `CC(C)C1CN(C(=O)N2CC(F)(F)C2)c2ccc(NC(=O)[C@@H](NC(=O)c3ccnn3C(C)C)C(C3CC3)C3CC3)cc2O1` (stereo partly shown) [Compound 247], the concentration for half-maximal inhibition (IC50) in data set [1] (Homo sapiens, HEK-Blue, 20 h) was determined as 30.4 nM.

`CC(C)n1nccc1C(=O)N[C@H](C(=O)Nc1cc2c(cc1F)[C@H](C(=O)N1CC(F)(F)C1)C[C@H](C1CC(F)(F)C1)O2)[C@H]1CC[C@H](C)CC1` [Compound 248]: in data set [1] (Homo sapiens, HEK-Blue, 20 h), the IC50 turned out to be 24.4 nM. For the same compound, in data set [2], the AUC stood at 6093 ng · h/m and the bioavailability was 70.7%.

As to `CC(C)n1nccc1C(=O)N[C@H](C(=O)Nc1cc2c(cc1F)[C@H](C(=O)N1CC(F)(F)C1)C[C@H](C1CC(F)(F)C1)O2)C1CCC(F)(F)CC1` [Compound 249], the IC50 in data set [1] (Homo sapiens, HEK-Blue, 20 h) came out at 99.3 nM.
